# Experiments:
# [1] = target: T1, DOT1L (Homo sapiens, UniProt Q8TEK3); assay: Inhibition of DOT1L methylation (H3K79) by western blotting; type: cell-based; settings: breast cancer cell line, FIG. 3
# T1 construct: based on the finding that DOT1L was overexpressed in the breast cancer cell line; endogenous in cells
# Excerpt: As confirmed in Example 1, based on the finding that DOT1L was overexpressed in the breast cancer cell line, the effects of the derivatives of the present invention on the methylation of the histone 3 lysine 79 (H3K79) residue, which is an in-vivo target of DOT1L, were examined by western blotting.
# [2] = system: HCT116 human colon cancer cells; assay: SRB cytotoxicity test, HCT116; type: cell-based; settings: SRB assay, cultured 3 days
# Experimental: A cytotoxicity test was performed using synthesized selenopsammaplin A and derivatives thereof (Lee S K et al […] Chem Biol Interact 115:215-28).
# The cytotoxicity test was performed on a total of five representative cancer cell lines. The cytotoxicity of each compound was measured using an SRB assay method (human lung cancer cells, A549; human colon cancer cells, HCT116; human breast cancer cells, MDA-MB231; human liver cancer cells, SK-HEP-1; human gastric cancer cells, SNU638).
# Each cell line was sub-cultured once or twice using Roswell Park Memorial Institute (RPMI) medium 1640 (RPMI 1640) or Dulbecco's Modified Eagle's Medium (DMEM) containing 10% fetal bovine serum (FBS) inactivated by heat, 100 units/mL of penicillin, 100 μg/mL of streptomycin, and 250 ng/mL of amphotericin B at 37° C. for 1 week under a 5% CO2 condition. All cells were […] in liquid nitrogen, and then passaged three or more times to be used in the experiment. The effects of compounds on cell growth were measured using a sulforhodamine B (SRB) method (Lee et al (1998) Chemico-Biol Interact 115:215-228).
# Specifically, each human cancer cell line used in the present invention was sub-cultured in an RPMI medium containing 10% FBS, 1% PSF, and the like, and 10 μl of a sample dissolved in 10% DMSO and 190 μl (4-5×10^4 cells/ml) of the cell suspension were added to each well of a 96-well plate and cultured for 3 days. 190 μl of the cell suspension was added to at least 16 wells and cultured for 30 minutes, and used as a zero-day control. The cultured cells were fixed with 10% trichloroacetic acid (TCA) and then stained with an SRB solution, and the staining solution was dissolved with 10 mM Tris-base, and then absorbance at 515 nm was measured. Using the case of culturing in 10% DMSO as a control, cell viability according to each test material treatment was measured using Equation 1 below. Etoposide was used as a positive control. % Viability=(OD(sample)−OD(0-day))/(OD(10% DMSO)−OD(0-day))×100 [Equation 1]
# Assuming that a control not-treated with the sample was set at 100%, the values of sample-treated groups were expressed as percentage with respect to the control, and each test material treatment results were obtained as the mean±SEM of two or three tests. The IC50 value is the concentration of the test material for a 50% survival rate.
# [3] = system: MDA-MB-231 cells; assay: Cancer cell migration (scratch) test; type: cell-based, human; settings: MDA-MB-231, scratch, 50-400 nM, 24 hours
# Experimental: The triple-negative breast cancer cell line MDA-MB-231 was spread at a concentration of 2×10^6 cells/well on a DMEM medium containing 10% FBS in a 6-well plate, cultured at 37° C. for 24 hours under a 5% CO2 condition, and then washed once with phosphate-buffered saline (PBS). After scratching using a 200 μl tip, the cells were treated with 50-400 nM compound 2 and 400 nM psammaplin A, and then cultured for 24 hours. After washing once with PBS, the degree of migration of cells was photographed using a microscope, and the results thereof are illustrated in FIG. 5A. The degree of scratch healing compared to a control using ImageJ software is illustrated in FIG. 5B.
# [4] = system: MDA-MB-231 cells; assay: Cancer cell invasion (Transwell) test; type: cell-based, human; settings: MDA-MB-231, Transwell, 50-400 nM, 24 hours
# Experimental: The triple-negative breast cancer cell line MDA-MB-231 was spread at a concentration of 1×10^6 cells/well on a DMEM medium containing 10% FBS in a Transwell plate, cultured at 37° C. for 24 hours under a 5% CO2 condition, and then washed once with phosphate-buffered saline (PBS). Subsequently, the cells were treated with 50-400 nM compound 2 and 400 nM psammaplin A, and then cultured for 24 hours. After washing once with PBS, a membrane was attached to a slide glass, the degree of cell invasion was photographed using a microscope, and the results thereof are illustrated in FIG. 6A. The degree of invasion compared to a control using ImageJ software is illustrated in FIG. 6B.
# [5] = system: H3K79me2, E-cadherin, vimentin in breast tumors; assay: Cancer metastasis markers in tumor tissues, western blot; type: in vivo; settings: tumors extracted from treated mice
# Experimental: To verify that compound 2 is involved in the regulation of key factors such as H3K79me2, E-cadherin, and vimentin in vivo, the effect of compound 2 on the key factors in tumor tissues was analyzed using the following method.
# The triple-negative breast cancer cell line MDA-MB-231 was spread at a concentration of 2×10^6 cells/well on a DMEM medium containing 10% FBS in a 6-well plate, cultured at 37° C. for 24 hours under a 5% CO2 condition, and then washed twice with phosphate-buffered saline (PBS). Attached cells were recovered and washed twice with PBS, and then boiling 2× sample loading buffer (250 mM Tris-HCl (pH 6.8), 4% SDS, 10% glycerol, 0.006% bromophenol blue, 2% β-mercaptoethanol, 50 mM sodium fluoride, and 5 mM sodium orthovanadate) was added thereto to disrupt the cells and the cells were left at 100° C. for 10 minutes. After cooling, the cells were stored at […] and […] at 37° C. immediately before use in protein quantification and electrophoresis. 10 μg of proteins were electrophoresed at 100 V for 2 hours using a 12% SDS-polyacrylamide gel (#456-1036, Bio-Rad, Hercules, Calif.). The separated proteins were transferred to a PVDF membrane (ISEQ15150, Millipore, Bedford, Mass.) at 100 V for 1 hour, and a blocking buffer (5% non-fat dry milk in TBS containing 0.1% Tween-20 (TBST)) was injected thereinto to culture the proteins at room temperature for 1 hour. After washing three times with TBST for 5 minutes, the corresponding single antibody was diluted with 5% non-fat dry milk in TBST and allowed to react with the membrane at 4° C. for 18 hours. The membrane [ISEQ 1S150, Millipore, Bedford, Mass.] was washed three times with TBST for 10 minutes, and then horseradish peroxidase (HRP)-conjugated secondary antibodies were diluted with 2.5% non-fat dry milk in TBST at a ratio of 1:2,000 and allowed to react with the membrane at room temperature for 2 hours. […] These were quantified using ImageJ software and are illustrated in FIG. 10B.
# T1 sequence (Q8TEK3 whole entry): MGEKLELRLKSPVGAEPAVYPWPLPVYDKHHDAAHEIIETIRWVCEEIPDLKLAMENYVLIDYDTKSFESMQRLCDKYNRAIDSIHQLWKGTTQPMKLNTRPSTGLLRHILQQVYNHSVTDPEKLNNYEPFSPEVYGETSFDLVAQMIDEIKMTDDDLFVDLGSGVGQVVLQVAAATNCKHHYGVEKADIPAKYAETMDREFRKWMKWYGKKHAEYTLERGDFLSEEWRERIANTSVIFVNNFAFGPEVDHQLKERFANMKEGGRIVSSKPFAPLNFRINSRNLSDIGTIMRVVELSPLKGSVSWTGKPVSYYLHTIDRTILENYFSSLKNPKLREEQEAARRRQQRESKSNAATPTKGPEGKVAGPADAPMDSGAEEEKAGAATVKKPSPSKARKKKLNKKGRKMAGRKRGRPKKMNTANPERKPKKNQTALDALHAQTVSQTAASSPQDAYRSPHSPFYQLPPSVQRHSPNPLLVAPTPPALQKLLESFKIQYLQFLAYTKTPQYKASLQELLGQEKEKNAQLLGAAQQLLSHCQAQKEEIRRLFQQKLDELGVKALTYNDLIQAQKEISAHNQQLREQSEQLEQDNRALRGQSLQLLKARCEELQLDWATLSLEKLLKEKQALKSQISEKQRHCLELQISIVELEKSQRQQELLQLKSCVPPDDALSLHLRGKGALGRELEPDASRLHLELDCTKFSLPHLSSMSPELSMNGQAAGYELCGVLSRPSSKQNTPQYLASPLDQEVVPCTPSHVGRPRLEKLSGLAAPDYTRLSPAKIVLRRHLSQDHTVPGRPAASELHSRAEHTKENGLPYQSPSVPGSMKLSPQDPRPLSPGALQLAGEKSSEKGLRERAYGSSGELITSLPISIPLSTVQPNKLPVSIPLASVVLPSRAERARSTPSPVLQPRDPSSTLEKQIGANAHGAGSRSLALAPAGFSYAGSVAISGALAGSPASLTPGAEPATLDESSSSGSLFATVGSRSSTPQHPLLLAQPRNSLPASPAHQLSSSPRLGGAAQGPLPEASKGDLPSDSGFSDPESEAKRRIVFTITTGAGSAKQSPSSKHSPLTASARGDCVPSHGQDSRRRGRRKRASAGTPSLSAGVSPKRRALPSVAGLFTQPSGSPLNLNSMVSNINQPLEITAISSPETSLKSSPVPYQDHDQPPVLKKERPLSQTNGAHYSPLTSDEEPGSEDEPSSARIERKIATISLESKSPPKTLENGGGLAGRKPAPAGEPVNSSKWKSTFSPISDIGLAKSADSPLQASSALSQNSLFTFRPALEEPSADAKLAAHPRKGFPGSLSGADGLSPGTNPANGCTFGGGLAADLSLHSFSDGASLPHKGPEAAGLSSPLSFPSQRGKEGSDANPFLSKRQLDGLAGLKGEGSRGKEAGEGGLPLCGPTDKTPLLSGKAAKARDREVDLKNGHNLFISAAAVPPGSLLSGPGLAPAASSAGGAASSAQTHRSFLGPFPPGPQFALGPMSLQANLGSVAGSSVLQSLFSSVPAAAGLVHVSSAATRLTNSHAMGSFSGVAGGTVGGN
structure (smiles),measurement,setting,value
"O=C(NCC[Se][Se]CCNC(=O)/C(Cc1ccccc1)=N/O)/C(Cc1ccccc1)=N/O [Compound 2, (2E,2′E)-N,N′-(diselenediylbis(ethane-2,1-diyl))bis(2-(hydroxyimino)-3-phenylpropanamide)]",inhibitory effect on H3K79 methylation,[1],excellent
same,IC50,[2],90 nM
same,migration of breast cancer cells,[3],effectively suppressed
same,invasion of breast cancer cells,[4],effectively suppressed
same,E-cadherin in breast tumors,[5],increased in a concentration-dependent manner
same,histone methylation (H3K79me2) in breast tumors,[5],reduced in a concentration-dependent manner
same,vimentin in breast tumors,[5],reduced in a concentration-dependent manner
